# Laboratory results published in ChEMBL document CHEMBL4665836, “Overcoming β-Lactam resistance in Pseudomonas aeruginosa using non-canonical tobramycin-based antibiotic adjuvants” (2020).
# How the values were obtained:
# Type in all cases: functional
# Pseudomonas aeruginosa [1] = test: Potentiation of imipenem-induced antibacterial activity against carbapenem-resistant Pseudomonas aeruginosa 88949 clinical isolate assessed as fold reduction in imipenem MIC at 8 uM in presence of beta-lactamase inhibitor, rele-bactam
# Pseudomonas aeruginosa [2] = test: Potentiation of imipenem-induced antibacterial activity against carbapenem-resistant Pseudomonas aeruginosa 109084 clinical isolate assessed as fold reduction in imipenem MIC at 8 uM in presence of beta-lactamase inhibitor, rele-bactam
# Pseudomonas aeruginosa [3] = test: Potentiation of aztreonam-induced antibacterial activity against carbapenem-resistant Pseudomonas aeruginosa 86052 clinical isolate assessed as fold reduction in aztreonam MIC at 8 uM in presence of beta-lactamase inhibitor, avi-bactam
# Pseudomonas aeruginosa [4] = test: Potentiation of aztreonam-induced antibacterial activity against carbapenem-resistant Pseudomonas aeruginosa 107092 clinical isolate assessed as fold reduction in aztreonam MIC at 8 uM in presence of beta-lactamase inhibitor, avi-bactam
# Pseudomonas aeruginosa [5] = test: Potentiation of ceftazidime-induced antibacterial activity against carbapenem-resistant Pseudomonas aeruginosa 86052 clinical isolate assessed as fold reduction in ceftazidime MIC at 8 uM in presence of beta-lactamase inhibitor, avi-bactam
# Pseudomonas aeruginosa [6] = test: Potentiation of imipenem-induced antibacterial activity against carbapenem-resistant Pseudomonas aeruginosa PAO750 harboring mexAB-oprM/mexCD-oprJ/mexEF-oprN/mexJK/mexXY/opmH efflux deficient mutant assessed as imipenem MIC at 8 uM by checkerboard assay (reference value: 4 ug/ml)
# Pseudomonas aeruginosa [7] = test: Potentiation of imipenem-induced antibacterial activity against carbapenem and colistin-resistant Pseudomonas aeruginosa 114228 clinical isolate assessed as imipenem MIC at 8 uM by checkerboard assay (reference value: 8 ug/ml)
# Pseudomonas aeruginosa [8] = test: Potentiation of imipenem-induced antibacterial activity against carbapenem and colistin-resistant Pseudomonas aeruginosa 101243 clinical isolate assessed as imipenem MIC at 8 uM by checkerboard assay (reference value: 8 ug/ml)
# Pseudomonas aeruginosa [9] = test: Potentiation of imipenem-induced antibacterial activity against carbapenem-resistant Pseudomonas aeruginosa 101885 clinical isolate assessed as imipenem MIC at 8 uM by checkerboard assay (reference value: 4 ug/ml)
# Pseudomonas aeruginosa [10] = test: Potentiation of imipenem-induced antibacterial activity against carbapenem-resistant Pseudomonas aeruginosa 100036 clinical isolate assessed as imipenem MIC at 8 uM by checkerboard assay (reference value: 8 ug/ml)
# Pseudomonas aeruginosa [11] = test: Potentiation of imipenem-induced antibacterial activity against carbapenem-resistant Pseudomonas aeruginosa 264-104354 clinical isolate assessed as imipenem MIC at 8 uM by checkerboard assay (reference value: 16 ug/ml)
# Pseudomonas aeruginosa [12] = test: Potentiation of ceftazidime-induced antibacterial activity against carbapenem-resistant Pseudomonas aeruginosa PAO750 harboring and mexAB-oprM/mexCD-oprJ/mexEF-oprN/mexJK/mexXY/opmH efflux deficient mutant assessed as ceftazidime MIC at 8 uM by checkerboard assay (reference value: 0.5 ug/ml)
# Pseudomonas aeruginosa [13] = test: Potentiation of ceftazidime-induced antibacterial activity against carbapenem-resistant Pseudomonas aeruginosa 109084 clinical isolate assessed as ceftazidime MIC at 8 uM by checkerboard assay (reference value: 64 ug/ml)
# Pseudomonas aeruginosa [14] = test: Potentiation of ceftazidime-induced antibacterial activity against carbapenem-resistant Pseudomonas aeruginosa 108590 clinical isolate assessed as ceftazidime MIC at 8 uM by checkerboard assay (reference value: 32 ug/ml)
# Pseudomonas aeruginosa [15] = test: Potentiation of ceftazidime-induced antibacterial activity against carbapenem and colistin-resistant Pseudomonas aeruginosa 114228 clinical isolate assessed as ceftazidime MIC at 8 uM by checkerboard assay (reference value: 8 ug/ml)
# Pseudomonas aeruginosa [16] = test: Potentiation of ceftazidime-induced antibacterial activity against carbapenem and colistin-resistant Pseudomonas aeruginosa 101243 clinical isolate assessed as ceftazidime MIC at 8 uM by checkerboard assay (reference value: 64 ug/ml)
# Pseudomonas aeruginosa [17] = test: Potentiation of ceftazidime-induced antibacterial activity against carbapenem and colistin-resistant Pseudomonas aeruginosa 91433 clinical isolate assessed as ceftazidime MIC at 8 uM by checkerboard assay (reference value: 4 ug/ml)
# Pseudomonas aeruginosa [18] = test: Potentiation of ceftazidime-induced antibacterial activity against carbapenem-resistant Pseudomonas aeruginosa 264-104354 clinical isolate assessed as ceftazidime MIC at 8 uM by checkerboard assay (reference value: 128 ug/ml)
# Pseudomonas aeruginosa [19] = test: Potentiation of ceftazidime-induced antibacterial activity against carbapenem-resistant Pseudomonas aeruginosa 262-101856 clinical isolate assessed as ceftazidime MIC at 8 uM by checkerboard assay (reference value: 16 ug/ml)
# Pseudomonas aeruginosa [20] = test: Potentiation of ceftazidime-induced antibacterial activity against carbapenem-resistant Pseudomonas aeruginosa 260-97103 clinical isolate assessed as ceftazidime MIC at 8 uM by checkerboard assay (reference value: 32 ug/ml)
# Pseudomonas aeruginosa [21] = test: Potentiation of aztreonam-induced antibacterial activity against carbapenem-resistant Pseudomonas aeruginosa PAO750 harboring mexAB-oprM/mexCD-oprJ/mexEF-oprN/mexJK/mexXY/opmH efflux deficient mutant assessed as aztreonam MIC at 8 uM by checkerboard assay (reference value: 0.5 ug/ml)
# Pseudomonas aeruginosa [22] = test: Potentiation of aztreonam-induced antibacterial activity against carbapenem-resistant Pseudomonas aeruginosa 101885 clinical isolate assessed as aztreonam MIC at 8 uM by checkerboard assay (reference value: 16 ug/ml)
# Pseudomonas aeruginosa [23] = test: Potentiation of aztreonam-induced antibacterial activity against carbapenem-resistant Pseudomonas aeruginosa 100036 clinical isolate assessed as aztreonam MIC at 8 uM by checkerboard assay (reference value: 16 ug/ml)
# Pseudomonas aeruginosa [24] = test: Potentiation of aztreonam-induced antibacterial activity against carbapenem and colistin-resistant Pseudomonas aeruginosa 91433 clinical isolate assessed as aztreonam MIC at 8 uM by checkerboard assay (reference value: 16 ug/ml)
# Pseudomonas aeruginosa [25] = test: Potentiation of aztreonam-induced antibacterial activity against carbapenem-resistant Pseudomonas aeruginosa 264-104354 clinical isolate assessed as aztreonam MIC at 8 uM by checkerboard assay (reference value: 32 ug/ml)
# Pseudomonas aeruginosa [26] = test: Potentiation of aztreonam-induced antibacterial activity against carbapenem-resistant Pseudomonas aeruginosa 262-101856 clinical isolate assessed as aztreonam MIC at 8 uM by checkerboard assay (reference value: 32 ug/ml)
# Pseudomonas aeruginosa [27] = test: Potentiation of aztreonam-induced antibacterial activity against carbapenem-resistant Pseudomonas aeruginosa 260-97103 clinical isolate assessed as aztreonam MIC at 8 uM by checkerboard assay (reference value: 64 ug/ml)
# Pseudomonas aeruginosa [28] = test: Potentiation of piperacillin-induced antibacterial activity against wild type Pseudomonas aeruginosa PAO1 assessed as piperacillin MIC at 8 uM by checkerboard assay (reference value: 8 ug/ml)
# Pseudomonas aeruginosa [29] = test: Antibacterial activity against Pseudomonas aeruginosa PAO750 harboring mexAB-oprM/mexCD-oprJ/mexEF-oprN/mexJK/mexXY/opmH efflux deficient mutant
# Pseudomonas aeruginosa [30] = test: Antibacterial activity against wild type Pseudomonas aeruginosa PAO1
# Pseudomonas aeruginosa [31] = test: Potentiation of ceftazidime-induced antibacterial activity against wild type Pseudomonas aeruginosa PAO1 assessed as fold reduction in ceftazidime MIC at 8 uM
# Pseudomonas aeruginosa [32] = test: Potentiation of piperacillin-induced antibacterial activity against wild type Pseudomonas aeruginosa PAO1 assessed as fold reduction in piperacillin MIC at 8 uM
Compound,fold change (FC) (Pseudomonas aeruginosa [1]),fold change (FC) (Pseudomonas aeruginosa [2]),fold change (FC) (Pseudomonas aeruginosa [3]),fold change (FC) (Pseudomonas aeruginosa [4]),fold change (FC) (Pseudomonas aeruginosa [5]),MIC (Pseudomonas aeruginosa [6]) [µg/mL],MIC (Pseudomonas aeruginosa [7]) [µg/mL],MIC (Pseudomonas aeruginosa [8]) [µg/mL],MIC (Pseudomonas aeruginosa [9]) [µg/mL],MIC (Pseudomonas aeruginosa [10]) [µg/mL],MIC (Pseudomonas aeruginosa [11]) [µg/mL],MIC (Pseudomonas aeruginosa [12]) [µg/mL],MIC (Pseudomonas aeruginosa [13]) [µg/mL],MIC (Pseudomonas aeruginosa [14]) [µg/mL],MIC (Pseudomonas aeruginosa [15]) [µg/mL],MIC (Pseudomonas aeruginosa [28]) [µg/mL],MIC (Pseudomonas aeruginosa [29]) [µg/mL],MIC (Pseudomonas aeruginosa [30]) [µg/mL],fold change (FC) (Pseudomonas aeruginosa [31]),fold change (FC) (Pseudomonas aeruginosa [32]),further results
NC[C@H]1O[C@H](O[C@H]2[C@H](OCCCCc3cn(CCCCO[C@@H]4[C@@H](O[C@H]5O[C@H](CO)[C@@H](O)[C@H](N)[C@H]5O)[C@H](N)C[C@H](N)[C@H]4O[C@H]4O[C@H](CN)[C@@H](O)C[C@H]4N)nn3)[C@@H](O[C@H]3O[C@H](CO)[C@@H](O)[C@H](N)[C@H]3O)[C@H](N)C[C@@H]2N)[C@H](N)C[C@@H]1O.O=C(O)C(F)(F)F.O=C(O)C(F)(F)F.O=C(O)C(F)(F)F.O=C(O)C(F)(F)F.O=C(O)C(F)(F)F.O=C(O)C(F)(F)F.O=C(O)C(F)(F)F.O=C(O)C(F)(F)F.O=C(O)C(F)(F)F.O=C(O)C(F)(F)F,16,16,16,16,16,1,0.5,8,4,4,4,0.06,32,8,1,0.5,> 128,> 128,2,2,MIC (Pseudomonas aeruginosa [16]): 64 µg/mL; MIC (Pseudomonas aeruginosa [17]): 1 µg/mL; MIC (Pseudomonas aeruginosa [18]): 32 µg/mL; MIC (Pseudomonas aeruginosa [19]): 2 µg/mL; MIC (Pseudomonas aeruginosa [20]): 8 µg/mL; MIC (Pseudomonas aeruginosa [21]): 0.06 µg/mL; MIC (Pseudomonas aeruginosa [22]): 4 µg/mL; MIC (Pseudomonas aeruginosa [23]): 2 µg/mL; MIC (Pseudomonas aeruginosa [24]): 4 µg/mL; MIC (Pseudomonas aeruginosa [25]): 8 µg/mL; MIC (Pseudomonas aeruginosa [26]): 8 µg/mL; MIC (Pseudomonas aeruginosa [27]): 16 µg/mL
Cl.Cl.Cl.Cl.Cl.NC[C@H]1O[C@H](O[C@H]2[C@H](OCCCCCCCCCCCCN3CCN(c4cc5c(cc4F)c(=O)c(C(=O)O)cn5C4CC4)CC3)[C@@H](O)[C@H](N)C[C@@H]2N)[C@H](N)C[C@@H]1O,16,16,16,16,16,2,1,4,2,4,8,0.01,32,1,4,2,2,32,2,2,MIC (Pseudomonas aeruginosa [16]): 4 µg/mL; MIC (Pseudomonas aeruginosa [17]): 0.5 µg/mL; MIC (Pseudomonas aeruginosa [18]): 64 µg/mL; MIC (Pseudomonas aeruginosa [19]): 4 µg/mL; MIC (Pseudomonas aeruginosa [20]): 0.25 µg/mL; MIC (Pseudomonas aeruginosa [21]): 0.13 µg/mL; MIC (Pseudomonas aeruginosa [22]): 4 µg/mL; MIC (Pseudomonas aeruginosa [23]): 8 µg/mL; MIC (Pseudomonas aeruginosa [24]): 8 µg/mL; MIC (Pseudomonas aeruginosa [25]): 16 µg/mL; MIC (Pseudomonas aeruginosa [26]): 16 µg/mL; MIC (Pseudomonas aeruginosa [27]): 0.25 µg/mL
Cl.Cl.Cl.Cl.Cl.Cl.NC[C@H]1O[C@H](O[C@H]2[C@H](OCCCCCCCCCCCCN3CCN(c4cc5c(cc4F)c(=O)c(C(=O)O)cn5C4CC4)CC3)[C@@H](O[C@H]3O[C@H](CO)[C@@H](O)[C@H](N)[C@H]3O)[C@H](N)C[C@@H]2N)[C@H](N)C[C@@H]1O,16,16,16,16,16,0.5,2,2,2,2,4,0.03,16,0.5,0.5,2,2,32,2,2,MIC (Pseudomonas aeruginosa [16]): 8 µg/mL; MIC (Pseudomonas aeruginosa [17]): 2 µg/mL; MIC (Pseudomonas aeruginosa [18]): 16 µg/mL; MIC (Pseudomonas aeruginosa [19]): 4 µg/mL; MIC (Pseudomonas aeruginosa [20]): 4 µg/mL; MIC (Pseudomonas aeruginosa [21]): 0.06 µg/mL; MIC (Pseudomonas aeruginosa [22]): 1 µg/mL; MIC (Pseudomonas aeruginosa [23]): 4 µg/mL; MIC (Pseudomonas aeruginosa [24]): 4 µg/mL; MIC (Pseudomonas aeruginosa [25]): 8 µg/mL; MIC (Pseudomonas aeruginosa [26]): 4 µg/mL; MIC (Pseudomonas aeruginosa [27]): 4 µg/mL
NC[C@H]1O[C@H](O[C@H]2[C@H](OCCCCCCCCN3CCCNCCNCCCNCC3)[C@@H](O[C@H]3O[C@H](CO)[C@@H](O)[C@H](N)[C@H]3O)[C@H](N)C[C@@H]2N)[C@H](N)C[C@@H]1O.O=C(O)C(F)(F)F.O=C(O)C(F)(F)F.O=C(O)C(F)(F)F.O=C(O)C(F)(F)F.O=C(O)C(F)(F)F.O=C(O)C(F)(F)F.O=C(O)C(F)(F)F.O=C(O)C(F)(F)F.O=C(O)C(F)(F)F,16,16,16,16,16,2,8,8,2,8,8,,,,,2,128,> 128,2,2,
NC[C@H]1O[C@H](O[C@H]2[C@H](OCCCCCCCCN3CCCNCCNCCCNCC3)[C@@H](O)[C@H](N)C[C@@H]2N)[C@H](N)C[C@@H]1O.O=C(O)C(F)(F)F.O=C(O)C(F)(F)F.O=C(O)C(F)(F)F.O=C(O)C(F)(F)F.O=C(O)C(F)(F)F.O=C(O)C(F)(F)F.O=C(O)C(F)(F)F.O=C(O)C(F)(F)F,16,16,16,16,16,4,8,8,2,8,16,0.13,32,16,4,2,> 128,> 128,2,2,MIC (Pseudomonas aeruginosa [16]): 8 µg/mL; MIC (Pseudomonas aeruginosa [17]): 2 µg/mL; MIC (Pseudomonas aeruginosa [18]): 32 µg/mL; MIC (Pseudomonas aeruginosa [19]): 16 µg/mL; MIC (Pseudomonas aeruginosa [20]): 16 µg/mL; MIC (Pseudomonas aeruginosa [21]): 0.13 µg/mL; MIC (Pseudomonas aeruginosa [22]): 4 µg/mL; MIC (Pseudomonas aeruginosa [23]): 8 µg/mL; MIC (Pseudomonas aeruginosa [24]): 8 µg/mL; MIC (Pseudomonas aeruginosa [25]): 16 µg/mL; MIC (Pseudomonas aeruginosa [26]): 8 µg/mL; MIC (Pseudomonas aeruginosa [27]): 8 µg/mL
